Measurements from patent US8952024B2, “Herbicidal pyrimidone derivatives” (E I du Pont de Nemours and Company, priority 2009, dated 2015).

Key:
Format in all cases: in vivo
[1] = test system: giant foxtail (Setaria faberii); assay: Test B pre-/postemergence plant response; settings: for Foxtail, Giant plant response rating (0 to 100 scale): 62 g ai/ha, 0 is no effect, 13 to 15 days
Summary of the method: (§1)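 Pre-em in loam/sand; post-em at 1–4 leaf (2–18 cm) in peat mix. Solvent + surfactant formulation. Greenhouse 13–15 d; visual % control vs untreated, 0–100.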

[2] = test system: ragweed (common ragweed, Ambrosia elatior); assay: Test B pre-/postemergence plant response; settings: for Ragweed plant response rating (0 to 100 scale): 62 g ai/ha, 0 is no effect, 13 to 15 days
Summary of the method: as §1

corn (Zea mays) = assay: Test B pre-/postemergence plant response; settings: for Corn plant response rating (0 to 100 scale): 62 g ai/ha, 0 is no effect, 13 to 15 days
Summary of the method: as §1

[3] = test system: goosegrass (Eleusine indica); assay: Test B pre-/postemergence plant response; settings: for Goosegrass plant response rating (0 to 100 scale): 62 g ai/ha, 0 is no effect, 13 to 15 days
Summary of the method: as §1

[4] = test system: pigweed (Amaranthus retroflexus); assay: Test B pre-/postemergence plant response; settings: for Pigweed plant response rating (0 to 100 scale): 62 g ai/ha, 0 is no effect, 13 to 15 days
Summary of the method: as §1

[5] = test system: Surinam grass (Brachiaria decumbens); assay: Test B pre-/postemergence plant response; settings: for Surinam Grass plant response rating (0 to 100 scale): 62 g ai/ha, 0 is no effect, 13 to 15 days
Summary of the method: as §1

[6] = test system: johnsongrass (Sorghum halepense); assay: Test B pre-/postemergence plant response; settings: for Johnsongrass plant response rating (0 to 100 scale): 62 g ai/ha, 0 is no effect, 13 to 15 days
Summary of the method: as §1

wild oat (Avena fatua) = assay: Test B pre-/postemergence plant response; settings: for Oat, Wild plant response rating (0 to 100 scale): 62 g ai/ha, 0 is no effect, 13 to 15 days
Summary of the method: as §1

[7] = test system: lambsquarters (Chenopodium album); assay: Test B pre-/postemergence plant response; settings: for Lambsquarters plant response rating (0 to 100 scale): 62 g ai/ha, 0 is no effect, 13 to 15 days
Summary of the method: as §1

[8] = test system: green foxtail (Setaria viridis); assay: Test B pre-/postemergence plant response; settings: for Foxtail, Green plant response rating (0 to 100 scale): 62 g ai/ha, 0 is no effect, 13 to 15 days
Summary of the method: as §1

[9] = test system: blackgrass (Alopecurus myosuroides); assay: Test B pre-/postemergence plant response; settings: for Blackgrass plant response rating (0 to 100 scale): 62 g ai/ha, 0 is no effect, 13 to 15 days
Summary of the method: as §1

[10] = test system: umbrella sedge (Cyperus difformis); assay: Test B flooded paddy test; settings: for Plant response rating, Flood, Sedge, Umbrella: 250 g ai/ha, flooded paddy test, visual rating on 0 to 100 scale (0 no effect, 100 complete control) after 13 to 15 days; for Plant response rating, Sedge, Umbrella: Flood (flooded paddy test), 13 to 15 days; for Sedge, Umbrella plant response rating: Flood, 31 g ai/ha, scale 0 to 100 (0 no effect, 100 complete control)
Summary of the method: (§2)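 Visual scores run from 0 (no effect) to 100 (complete control), assigned by comparison with controls 13 to 15 days after treatment. Test compounds went straight into water standing 3 cm above the soil, around plants at the 2-leaf stage kept in a greenhouse.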

rice (Oryza sativa) = assay: Test B flooded paddy test; settings: for Plant response rating, Flood, Rice: 250 g ai/ha, flooded paddy test, visual rating on 0 to 100 scale (0 no effect, 100 complete control) after 13 to 15 days; for Plant response rating, Rice: Flood (flooded paddy test), 13 to 15 days; for Rice plant response rating: Flood, 31 g ai/ha, scale 0 to 100 (0 no effect, 100 complete control)
Summary of the method: as §2

[11] = 31 g ai/ha, postemergence, scale 0 to 100, 0 is no effect, 100 is complete control
[12] = postemergence, 100 is complete control
[13] = Postemergence, 250 g ai/ha, scale 0 to 100 (0 no effect, 100 complete control)
[14] = Postemergence, 125 g ai/ha, visual rating after 13 to 15 days, scale 0 (no effect) to 100 (complete control)
[15] = 62 g ai/ha, scale of 0 to 100 where 0 is no effect and 100 is complete control
[16] = 125 g ai/ha, scale 0 to 100, 0 is no effect, 100 is complete control

CCCCn1c(-c2ccccc2)ncc(C(=O)C2=C(O)CCCC2=O)c1=O [Compound 86]
Plant response rating, Foxtail, Giant [1, 11]: 90 | Foxtail, Giant plant response rating (0 to 100 scale) [1, 12]: 95 | Plant response rating, Foxtail, Giant [1, 13]: 98 | Plant response rating, Ragweed [2, 11]: 80 | Ragweed plant response rating (0 to 100 scale) [2, 12]: 90 | Plant response rating, Ragweed [2, 13]: 98 | Plant response rating, Corn (corn (Zea mays); [11]): 10 | Corn plant response rating (0 to 100 scale) (corn (Zea mays); [12]): 60 | Plant response rating, Corn (corn (Zea mays); [14]): 80 | Plant response rating, Corn (corn (Zea mays); [13]): 85 | Plant response rating, Goosegrass [3, 11]: 70 | Goosegrass plant response rating (0 to 100 scale) [3, 12]: 75 | Plant response rating, Goosegrass [3, 13]: 95 | Plant response rating, Pigweed [4, 11]: 98 | Pigweed plant response rating (0 to 100 scale) [4, 12]: 100 | Plant response rating, Pigweed [4, 13]: 100 | Plant response rating, Surinam Grass [5, 11]: 80 | Surinam Grass plant response rating (0 to 100 scale) [5, 12]: 95 | Plant response rating, Surinam Grass [5, 13]: 100 | Plant response rating, Johnsongrass [6, 11]: 95 | Johnsongrass plant response rating (0 to 100 scale) [6, 12]: 98 | Plant response rating, Johnsongrass [6, 13]: 100 | Plant response rating, Oat, Wild (wild oat (Avena fatua); [11]): 20 | Oat, Wild plant response rating (0 to 100 scale) (wild oat (Avena fatua); [12]): 50 | Plant response rating, Oat, Wild (wild oat (Avena fatua); [13]): 80 | Plant response rating, Lambsquarters [7, 11]: 100 | Lambsquarters plant response rating (0 to 100 scale) [7, 12]: 100 | Plant response rating, Lambsquarters [7, 13]: 100 | Plant response rating, Foxtail, Green [8, 11]: 70 | Foxtail, Green plant response rating (0 to 100 scale) [8, 12]: 95 | Plant response rating, Foxtail, Green [8, 13]: 100 | Plant response rating, Blackgrass [9, 11]: 15 | Blackgrass plant response rating (0 to 100 scale) [9, 12]: 30 | Plant response rating, Blackgrass [9, 14]: 45 | Plant response rating, Blackgrass [9, 13]: 55 | Plant response rating, Flood, Sedge, Umbrella [10]: 85 | Plant response rating, Sedge, Umbrella [10, 15]: 30 | Plant response rating, Sedge, Umbrella [10, 16]: 70 | Sedge, Umbrella plant response rating [10]: 20 | Plant response rating, Flood, Rice (rice (Oryza sativa)): 40 | Plant response rating, Rice (rice (Oryza sativa); [15]): 0 | Plant response rating, Rice (rice (Oryza sativa); [16]): 20 | Rice plant response rating (rice (Oryza sativa)): 0

O=C1CCCC(OC(=O)C2CC2)=C1C(=O)c1cnc(-c2ccccc2)n(-c2ccccc2)c1=O [Compound 88]
Plant response rating, Foxtail, Giant [1, 11]: 95 | Foxtail, Giant plant response rating (0 to 100 scale) [1, 12]: 95 | Plant response rating, Foxtail, Giant [1, 13]: 95 | Plant response rating, Ragweed [2, 11]: 75 | Ragweed plant response rating (0 to 100 scale) [2, 12]: 80 | Plant response rating, Ragweed [2, 13]: 98 | Plant response rating, Corn (corn (Zea mays); [11]): 15 | Corn plant response rating (0 to 100 scale) (corn (Zea mays); [12]): 65 | Plant response rating, Corn (corn (Zea mays); [14]): 65 | Plant response rating, Corn (corn (Zea mays); [13]): 80 | Plant response rating, Goosegrass [3, 11]: 65 | Goosegrass plant response rating (0 to 100 scale) [3, 12]: 70 | Plant response rating, Goosegrass [3, 13]: 70 | Plant response rating, Pigweed [4, 11]: 98 | Pigweed plant response rating (0 to 100 scale) [4, 12]: 100 | Plant response rating, Pigweed [4, 13]: 100 | Plant response rating, Surinam Grass [5, 11]: 95 | Surinam Grass plant response rating (0 to 100 scale) [5, 12]: 95 | Plant response rating, Surinam Grass [5, 13]: 98 | Plant response rating, Johnsongrass [6, 11]: 95 | Johnsongrass plant response rating (0 to 100 scale) [6, 12]: 100 | Plant response rating, Johnsongrass [6, 13]: 100 | Plant response rating, Oat, Wild (wild oat (Avena fatua); [11]): 50 | Oat, Wild plant response rating (0 to 100 scale) (wild oat (Avena fatua); [12]): 55 | Plant response rating, Oat, Wild (wild oat (Avena fatua); [13]): 80 | Plant response rating, Lambsquarters [7, 11]: 95 | Lambsquarters plant response rating (0 to 100 scale) [7, 12]: 98 | Plant response rating, Lambsquarters [7, 13]: 100 | Plant response rating, Foxtail, Green [8, 11]: 95 | Foxtail, Green plant response rating (0 to 100 scale) [8, 12]: 98 | Plant response rating, Foxtail, Green [8, 13]: 100 | Plant response rating, Blackgrass [9, 11]: 0 | Blackgrass plant response rating (0 to 100 scale) [9, 12]: 5 | Plant response rating, Blackgrass [9, 14]: 5 | Plant response rating, Blackgrass [9, 13]: 10 | Plant response rating, Flood, Sedge, Umbrella [10]: 65 | Plant response rating, Sedge, Umbrella [10, 15]: 30 | Plant response rating, Sedge, Umbrella [10, 16]: 40 | Sedge, Umbrella plant response rating [10]: 0 | Plant response rating, Flood, Rice (rice (Oryza sativa)): 50 | Plant response rating, Rice (rice (Oryza sativa); [15]): 0 | Plant response rating, Rice (rice (Oryza sativa); [16]): 40 | Rice plant response rating (rice (Oryza sativa)): 0
